The text below walks through data of US12377083B2 (WUHAN LL SCIENCE AND TECHNOLOGY DEVELOPMENT CO., LTD., priority 2019, dated 2025).

Data set [1] has as its target hLPAR1 (human lysophosphatidic acid receptor 1) (Homo sapiens, UniProt Q92633). The data set can be described thus: FLIPR assay of intracellular calcium increase induced by activation of hLPAR1 expressed in CHO-K1 cells. In kind it is cell-based. The settings on record: CHO-K1 cells expressing hLPAR1, agonist oleoyl-L-α-lysophosphatidic acid 1 μM; read-out: LPAR1 IC50. An outline of the steps: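 CHO-K1 cells expressing hLPAR1 were loaded with Fluo-4 AM for 1.0 h at 37° C, then preincubated 30 min at room temperature with compound. Oleoyl-LPA was added at 1 μM final, and calcium fluorescence was recorded by FLIPR for 2 min at 1-s intervals to assess antagonism.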

Data set [2] relates to A2058 (human melanoma cells). Nature of the data set: A2058 cell scratch (migration) assay with LPA. It is filed as cell-based. The conditions noted are these: 10 μM LPA, scratch area at 24 h.
Data set [3] is described as follows: In vitro cytotoxicity assay in HepG2 cells, CCK-8 method. The conditions noted are these: human. It is filed as cell-based. The method, then: In vitro cytotoxicity assay for the compounds disclosed herein was performed in HepG2 cells using the CCK-8 method. HepG2 cells (Beina Bio) in the logarithmic growth phase were collected, the concentration of cell suspension was adjusted, and then the cells were plated on a 96-well cell culture plate at 50,000 cells/well. The cells were then incubated overnight in a cell incubator (5% CO2, 37° C.), and after 80-90% cell confluence was achieved, test compounds or vehicle (DMSO) at various concentration gradients were added after medium change. The resulting mixture was incubated in the cell incubator (5% CO2, 37° C.) for 48 h. After the treatment, the medium in the plate was discarded. The plate was washed twice with PBS, added with CCK-8 working solution (Beyotime) at 100 μL per well, and then incubated at 37° C. for 1.5 h away from the light. Absorbance at OD450 nm was measured for each well on a microplate reader, and CC50 value of each compound was analyzed and calculated.

Data set [4] can be described thus: In vitro metabolic stability, human liver microsomes. The conditions noted are these: 1 mg/mL liver microsome protein, 37° C., read-out: Metabolism in human liver microsome T½ min. It is filed as in vitro ADME. The method, then: (§1) The in vitro metabolic stability of the compounds disclosed herein was determined through incubation of liver microsomes of various species. A proper amount of test compound was added into a liver microsome reaction system (1 mg/mL liver microsome protein, 25 U/mL glucose-6 phosphate dehydrogenase, 1 mM NADP, 6 mM D-glucose 6-phosphate and 5 mM MgCl2), and then the mixture was incubated in a water bath kettle at 37° C. to start reaction. At each time point, 100 μL of the reaction system was added into a centrifuge tube containing 400 μL of internal standard working solution (containing a 200 ng/mL solution of dexamethasone, diclofenac, tolbutamide and labetalol in acetonitrile) precooled at 0° C. so as to stop the reaction, and the mixture was then centrifuged at 10,000 g for 10 min at 4° C. The supernatant was collected for LC-MS assay so as to obtain the values of in vitro metabolic half-life of the test compounds in liver microsomes of various species.
For orientation: Microsomes from liver hold many membrane-bound enzymes, among them those of drug oxidation.

Data set [5] is described as follows: In vitro metabolic stability, rat liver microsomes. The conditions noted are these: 1 mg/mL liver microsome protein, 37° C., read-out: Metabolism in rat liver microsome T½ min. In kind it is in vitro ADME. The procedure:
as §1

The nature of data set [6]: In vitro metabolic stability, mouse liver microsomes. It is filed as in vitro ADME. The settings on record: 1 mg/mL liver microsome protein, 37° C., read-out: Metabolism in mouse liver microsome T½ min. The procedure: as §1

Sequence of hLPAR1 (human lysophosphatidic acid receptor 1) (Q92633 whole entry): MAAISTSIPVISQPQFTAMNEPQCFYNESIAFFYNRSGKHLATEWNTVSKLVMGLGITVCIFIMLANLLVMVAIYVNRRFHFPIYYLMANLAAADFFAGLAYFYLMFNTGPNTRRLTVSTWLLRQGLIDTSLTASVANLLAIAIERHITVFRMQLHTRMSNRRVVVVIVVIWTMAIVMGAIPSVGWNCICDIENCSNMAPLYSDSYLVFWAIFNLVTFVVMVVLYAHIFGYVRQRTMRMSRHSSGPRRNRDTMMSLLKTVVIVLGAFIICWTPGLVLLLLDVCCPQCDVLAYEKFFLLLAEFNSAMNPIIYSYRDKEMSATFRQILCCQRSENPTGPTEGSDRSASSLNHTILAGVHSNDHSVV

For orientation: IC50 means the concentration at which inhibition is half-maximal. What is called CC50 is the concentration that lowers cell viability or growth by half. A higher CC50 goes with lower toxicity to the cells. In the case of `CN(C(=O)OCc1c(-c2ccc(O[C@H]3CCC[C@H](C(=O)O)C3)c(C(F)F)n2)cnn1C)C1CCCC1` (racemic) [Compound 63, (+/−)-(1S,3S)-3-((6-(5-(((cyclopentyl(methyl)carbamoyl)oxy)methyl)-1-methyl-1H-pyrazol-4-yl)-2-(difluoromethyl)pyridin-3-yl)oxy)cyclohexane-1-carboxylic Acid], the IC50 in data set [1] is under 0.05 µM. Further, the “Cell migration inhibition rate (%)” value in data set [2] is on record as “B (B: 30-50%)”. The compound further gave a CC50 at 48 h in data set [3] of over 200 µM. In addition, the half-life worked out at 6.43 h in data set [4], 0.749 h in data set [5] and 8.96 h in data set [6].

Take `Cc1nc(-c2onc(C)c2COC(=O)N(C)C2CCCC2)ccc1O[C@H]1CCC[C@H](C(=O)O)C1` (racemic) [Compound 36]: in data set [1], the IC50 is under 0.05 µM. Also, the “Cell migration inhibition rate (%)” value in data set [2] is “A (A: 50-70%)”. This compound had a cytotoxic concentration (CC50) at 48 h in data set [3] of over 200 µM. For the same compound, the half-life was 2.42 h in data set [4], 0.473 h in data set [5] and 5.66 h in data set [6].

With `Cc1nc(-c2cnn(C)c2COC(=O)N(C)C2CCCC2)ccc1O[C@H]1CCC[C@H](C(=O)O)C1` (racemic) [Compound 16, (+/−)-(1S,3S)-3-((6-(5-(((cyclopentyl(methyl)carbamoyl)oxy)methyl)-1-methyl-1H-pyrazol-4-yl)-2-methylpyridin-3-yl)oxy)cyclohexane-1-carboxylic Acid], the IC50 in data set [1] is under 0.05 µM. For the same compound, the “Cell migration inhibition rate (%)” value in data set [2] is “A (A: 50-70%)”. In addition, in data set [3], the CC50 at 48 h is over 200 µM. For the same compound, the results for the half-life in data set [4] and in data set [5] were 10.3 h and 1.81 h, respectively.

Take `Cc1noc(-c2ccc(O[C@H]3CCC[C@H](C(=O)O)C3)cc2)c1COC(=O)N(C)C1CCCC1` (racemic) [Compound 4, (+/−)-(1S,3S)-3-(4-(4-(((cyclopentyl(methyl)carbamoyl)oxy)methyl)-3-methylisoxazol-5-yl)phenoxy)cyclohexane-1-carboxylic Acid]: the 50% cytotoxic concentration (CC50) at 48 h in data set [3] is over 200 µM. For the same compound, the half-life in data set [4] worked out at 2.19 h; in data set [5], 0.218 h; in data set [6], 2.79 h.

As for `Cc1csc(-c2ccc(O[C@H]3CCC[C@H](C(=O)O)C3)c(C)n2)c1COC(=O)N(C)C1CCCC1` (racemic) [Compound 46], the IC50 in data set [1] was under 0.05 µM. For the same compound, the “Cell migration inhibition rate (%)” value in data set [2] was “A (A: 50-70%)”. The compound also had a CC50 at 48 h in data set [3] of over 200 µM.

With `Cc1noc(-c2ccc(C3(C(=O)O)CC3)cc2)c1NC(=O)O[C@H](C)c1ccccc1` [Compound 3], the IC50 in data set [1] was in the range of 0.3 to 10 µM. Also, in data set [2], the “Cell migration inhibition rate (%)” value was “C (C: 0-30%)”. In addition, the CC50 at 48 h in data set [3] is over 200 µM.

`Cc1nc(-c2ncoc2COC(=O)N(C)C2CCCC2)ccc1O[C@H]1CCC[C@H](C(=O)O)C1` (racemic) [Compound 26]: the IC50 in data set [1] lay within 0.3 to 10 µM. In data set [2], the “Cell migration inhibition rate (%)” value was “C (C: 0-30%)”. This compound yielded a CC50 at 48 h in data set [3] of over 200 µM.

In the case of `Cc1nc(-c2cnnc(COC(=O)N(C)C3CCCC3)c2)ccc1O[C@H]1CCC[C@H](C(=O)O)C1` (racemic) [Compound 47], the IC50 in data set [1] is under 0.05 µM. In addition, in data set [2], the “Cell migration inhibition rate (%)” value is on record as “B (B: 30-50%)”. The compound also had a CC50 at 48 h in data set [3] of over 200 µM.

Turning to `Cc1nc(-c2c(C(F)(F)F)nn(C)c2COC(=O)N(C)C2CCCC2)ccc1O[C@H]1CCC[C@H](C(=O)O)C1` (racemic) [Compound 33], in data set [1], the IC50 is under 0.05 µM. For the same compound, the “Cell migration inhibition rate (%)” value in data set [2] is “B (B: 30-50%)”. Moreover, the 50% cytotoxic concentration (CC50) at 48 h in data set [3] is over 200 µM.

Take `Cc1nc(-c2ncnc(C)c2COC(=O)N(C)C2CCCC2)ccc1O[C@H]1CCC[C@H](C(=O)O)C1` (racemic) [Compound 51]: in data set [1], the IC50 is under 0.05 µM. Further, in data set [2], the “Cell migration inhibition rate (%)” value is given as “A (A: 50-70%)”. In data set [3], this compound gave a CC50 at 48 h of over 200 µM.

Consider `CN(C(=O)OCc1c(-c2ccc(O[C@H]3CCC[C@H](C(=O)O)C3)c(Cl)n2)cnn1C)C1CCCC1` (racemic) [Compound 61, (+/−)-(1S,3S)-3-((2-chloro-6-(5-(((cyclopentyl(methyl)carbamoyl)oxy)methyl)-1-methyl-1H-pyrazol-4-yl)pyridin-3-yl)oxy)cyclohexane-1-carboxylic Acid], for which the IC50 in data set [1] is under 0.05 µM. Besides, in data set [2], the “Cell migration inhibition rate (%)” value is given as “A (A: 50-70%)”. This compound also gave a CC50 at 48 h in data set [3] of over 200 µM.

`Cc1snc(-c2ccc(O[C@H]3CCC[C@H](C(=O)O)C3)cc2)c1COC(=O)N(C)C1CCCC1` (racemic) [Compound 29, (+/−)-(1S,3S)-3-(4-(4-(((cyclopentyl(methyl)carbamoyl)oxy)methyl)-5-methylisothiazol-3-yl)phenoxy)cyclohexane-1-carboxylic Acid]: the IC50 in data set [1] is under 0.05 µM. In data set [2], the “Cell migration inhibition rate (%)” value was “B (B: 30-50%)”. The compound also showed a CC50 at 48 h in data set [3] of over 200 µM.

As to `CN(Cc1ccccc1)C(=O)OCc1c(-c2ccc(O[C@H]3CCC[C@H](C(=O)O)C3)cc2)ncn1C` (racemic) [Compound 24], in data set [1], the concentration for half-maximal inhibition (IC50) is 0.3 to 10 µM. Further, the “Cell migration inhibition rate (%)” value in data set [2] is “C (C: 0-30%)”. Besides, in data set [3], the CC50 at 48 h is over 200 µM.

On to `Cc1nc(-c2cnn(C)c2COC(=O)N(C)C2CCCC2)cnc1O[C@H]1CCC[C@H](C(=O)O)C1` (racemic) [Compound 66], for which, in data set [1], the IC50 was under 0.05 µM. The “Cell migration inhibition rate (%)” value in data set [2] was “B (B: 30-50%)”. The half-life in data set [4] stood at 8.21 h; in data set [5], 1.56 h; in data set [6], 11.7 h.

As for `CN(Cc1ccccc1)C(=O)OCc1nc2cc(O[C@H]3CCC[C@H](C(=O)O)C3)ccc2n1C` (racemic) [Compound 22], the concentration for half-maximal inhibition (IC50) in data set [1] fell in the range of 0.3 to 10 µM. Also, in data set [2], the “Cell migration inhibition rate (%)” value was “C (C: 0-30%)”. The compound further came in with a CC50 at 48 h in data set [3] of over 200 µM.

For `Cc1nc(-c2c(C#N)nn(C)c2COC(=O)N(C)C2CCCC2)ccc1O[C@@H]1CCC[C@@H](C(=O)O)C1` (racemic) [Compound 58], the IC50 in data set [1] is under 0.05 µM. Further, the “Cell migration inhibition rate (%)” value in data set [2] is “A (A: 50-70%)”. This compound showed a CC50 at 48 h in data set [3] of over 200 µM.

As for `CN(C(=O)OCc1c(-c2ccc(O[C@H]3CCC[C@H](C(=O)O)C3)cc2)cnn1C)C1CCCC1` (racemic) [Compound 11, (+/−)-(1S,3S)-3-(4-(5-(((cyclopentyl(methyl)carbamoyl)oxy)methyl)-1-methyl-1H-pyrazol-4-yl)phenoxy)cyclohexane-1-carboxylate], the “Cell migration inhibition rate (%)” value in data set [2] is given as “A (A: 50-70%)”. The compound further displayed a CC50 at 48 h in data set [3] of over 200 µM. For the same compound, the half-life in data set [4], in data set [5] and in data set [6] was over 0.5 h throughout.

On to `Cc1nc(-n2cnc(C)c2COC(=O)N(C)C2CCCC2)ccc1O[C@H]1CCC[C@H](C(=O)O)C1` (racemic) [Compound 54], for which the IC50 in data set [1] is under 0.05 µM. Moreover, in data set [2], the “Cell migration inhibition rate (%)” value is “B (B: 30-50%)”. The compound further displayed a CC50 at 48 h in data set [3] of over 200 µM.

As for `CN(Cc1ccccc1)C(=O)OCc1ocnc1-c1ccc(O[C@H]2CCC[C@H](C(=O)O)C2)cc1` (racemic) [Compound 1, (+/−)-(1S,3S)-3-(4-(5-(((benzyl(methyl)carbamoyl)oxy)methyl)oxazol-4-yl)phenoxy)cyclohexane-1-carboxylic Acid], the IC50 in data set [1] was in the range of 0.3 to 10 µM. Besides, in data set [2], the “Cell migration inhibition rate (%)” value is given as “C (C: 0-30%)”. This compound also registered a CC50 at 48 h in data set [3] of over 200 µM.

For the compound `Cc1noc(-c2ccc(O[C@H]3CCC[C@H](C(=O)O)C3)c(C(F)(F)F)n2)c1COC(=O)N(C)C1CCCC1` [Compound 37], the IC50 in data set [1] is under 0.05 µM. The “Cell migration inhibition rate (%)” value in data set [2] was “A (A: 50-70%)”. In data set [3], the CC50 at 48 h was over 200 µM.

For `COc1nc(-c2cnn(C)c2COC(=O)N(C)C2CCCC2)ccc1O[C@H]1CCC[C@H](C(=O)O)C1` (racemic) [Compound 59, (+/−)-(1S,3S)-3-((6-(5-(((cyclopentyl(methyl)carbamoyl)oxy)methyl)-1-methyl-1H-pyrazol-4-yl)-2-methoxypyridin-3-yl)oxy)cyclohexane-1-carboxylic Acid], the IC50 in data set [1] is under 0.05 µM. The “Cell migration inhibition rate (%)” value in data set [2] is reported as “B (B: 30-50%)”. In data set [3], this compound registered a CC50 at 48 h of over 200 µM.

Consider `Cc1n[nH]c(-c2ccc(O[C@H]3CCC[C@H](C(=O)O)C3)cc2)c1COC(=O)N(C)C1CCCC1` (racemic) [Compound 27], for which the IC50 in data set [1] is under 0.05 µM. Also, the “Cell migration inhibition rate (%)” value in data set [2] is listed as “B (B: 30-50%)”. In data set [3], this compound came in with a CC50 at 48 h of over 200 µM.
